Reference: patent publication US6610270B1, “In vivo determination of metabolic function for use in therapy management” (Xanthus Life Sciences, Inc., priority 1998, dated 2003)
Read-outs that look alike come from different tables or passages of the source. Square brackets hold non-standard residues; d marks the D form. Peptide text beside a SMILES is read from it. * marks the point of attachment. pNA = O=[N+]([O-])c1ccc(N*)cc1; Abu = CC[C@H](N)C(=O)O

Tests used:
Aminopeptidase P (APP) [1] = details: Human BAL
Aminopeptidase P (APP) [2] = details: Rat Plasma
[3] = target: T1, Dipeptidyl peptidase IV (DPPIV) (Sus scrofa, UniProt P22411); assay: in-vitro Michaelis-Menten assay with dipeptidyl peptidase reference enzyme; format: biochemical; details: read-out: apparent Km
T1 construct: purchased Sigma-Aldrich D7052
T1 sequence (P22411 whole entry): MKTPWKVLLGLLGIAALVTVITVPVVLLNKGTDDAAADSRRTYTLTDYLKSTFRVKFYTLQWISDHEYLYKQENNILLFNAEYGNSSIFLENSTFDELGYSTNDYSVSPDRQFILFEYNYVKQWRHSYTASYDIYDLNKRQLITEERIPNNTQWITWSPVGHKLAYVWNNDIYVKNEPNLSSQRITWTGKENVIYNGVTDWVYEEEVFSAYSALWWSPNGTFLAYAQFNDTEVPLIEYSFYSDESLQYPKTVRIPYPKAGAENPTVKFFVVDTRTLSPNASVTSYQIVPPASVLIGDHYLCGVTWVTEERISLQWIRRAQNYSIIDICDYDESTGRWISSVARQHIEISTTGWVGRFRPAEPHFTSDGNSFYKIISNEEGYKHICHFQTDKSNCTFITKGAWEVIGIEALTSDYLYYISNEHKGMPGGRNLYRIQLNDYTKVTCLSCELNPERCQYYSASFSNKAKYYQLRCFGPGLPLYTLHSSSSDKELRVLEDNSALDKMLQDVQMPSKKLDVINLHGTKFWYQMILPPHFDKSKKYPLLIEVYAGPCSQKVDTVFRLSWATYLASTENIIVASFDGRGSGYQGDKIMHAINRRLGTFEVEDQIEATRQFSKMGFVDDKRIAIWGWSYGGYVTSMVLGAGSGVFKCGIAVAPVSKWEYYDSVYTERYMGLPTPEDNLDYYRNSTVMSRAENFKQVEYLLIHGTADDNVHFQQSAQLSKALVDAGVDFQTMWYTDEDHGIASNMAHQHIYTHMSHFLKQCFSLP
Text: Dipeptidyl peptidase reference enzyme was purchased from Sigma-Aldrich (D7052) and assayed by the standard Michaelis-Menten method described in similar studies by Barth and co-workers (Heins, et al.; Rahfeld, et al.). […] Hydrolysis of the latter was quantitated by isotope dilution GC/MS of the N-trifluoroacetyl-propyl ester, using L-2-aminobutyric[^2H5] acid as the internal standard.

DPPIV = target: T2, DPPIV (Rattus norvegicus, UniProt P14740); assay: plasma enzyme activity towards DPPIV substrates in septic rat model; format: biochemical, Sprague-Dawley rats
T2 construct: from tissue; host or cells: plasma of control and septic rats
T2 sequence (P14740 37-767 limits assumed): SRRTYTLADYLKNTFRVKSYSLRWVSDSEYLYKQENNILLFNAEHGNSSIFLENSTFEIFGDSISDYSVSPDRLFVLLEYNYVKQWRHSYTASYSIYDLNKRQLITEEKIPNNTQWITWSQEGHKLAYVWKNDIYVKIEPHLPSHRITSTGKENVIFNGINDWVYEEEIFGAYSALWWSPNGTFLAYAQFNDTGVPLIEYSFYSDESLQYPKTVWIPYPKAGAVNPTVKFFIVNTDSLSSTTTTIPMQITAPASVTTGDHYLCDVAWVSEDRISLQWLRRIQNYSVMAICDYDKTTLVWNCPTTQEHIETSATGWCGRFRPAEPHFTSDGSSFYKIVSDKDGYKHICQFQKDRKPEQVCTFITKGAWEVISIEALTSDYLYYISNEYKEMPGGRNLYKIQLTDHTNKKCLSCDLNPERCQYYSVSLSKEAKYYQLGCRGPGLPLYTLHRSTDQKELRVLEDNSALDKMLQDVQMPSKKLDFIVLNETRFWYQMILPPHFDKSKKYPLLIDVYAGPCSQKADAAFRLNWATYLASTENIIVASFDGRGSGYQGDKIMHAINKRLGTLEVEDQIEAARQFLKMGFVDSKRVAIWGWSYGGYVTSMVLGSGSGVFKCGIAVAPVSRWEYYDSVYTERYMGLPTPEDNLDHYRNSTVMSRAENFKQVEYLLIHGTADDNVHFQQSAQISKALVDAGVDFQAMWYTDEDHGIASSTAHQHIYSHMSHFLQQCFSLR
Experimental: (§1) Accordingly, ten male Sprague-Dawley rats, weighing approximately 300 gr., were injected with 3.5 mg/kg of GPA (prepared by sterile ultrafiltration in saline) and placed into metabolic cages for ^13CO2 collection (by alkaline trapping in seven 0.5 hour increments), in general as described by Vann et al. A blood draw of 0.4 ml was taken prior to the tracer administration to provide a baseline plasma titer for in vivo DPPIV activity. The following day, the rats were separated into a control panel and a test panel. Each of the three animals in the test panel was made septic (on Day 0) by intravenous (tail vein) adminstration of E. coli. Three control animals were sham injected with saline, and all were maintained in separate cages.
(§2) On day 2 and 6, and after a […], the administration of the “breath test” metaprobe and ^13CO2 collection was repeated. Equal aliquots of plasma were assayed for enzyme activity by spectrophotometry in two ways: a) using GP4NA (FIG. 16, structure I), a traditional and confirmatory approach, and b) using GPPaba (FIG. 16, structure III with R1 being the protonated free acid) by GC/MS quantitation of the p-aminobenzoic[1-^13C] acid (Paba, FIG. 16, structure IV) derived hydrolytically. The isotopic enrichment of the seven breath collections was measured by isotope ratio mass spectrometry, of the gas liberated after phosphoric acid protonation. The cumulative extent of metaprobe metabolism, as a per cent of dose taking into account the total CO2 production rate of each animal (Mohan et al.) was then calculated.
(§3) Also, over the 7 day experiment, the specific activity of plasma towards GP4NA in the control group averaged 29±6 nMol/min/ml while the septic titer rose to 43±7 and 49±6 on days two and six, respectively. The corresponding values of plasma activity towards GPPaba in the control group averaged 18±7 nMol/min/ml while the septic titer rose to 55±17 and 30±6 on days two and six, respectively. A “sham” breath test using 1.5 mg/kg administration of L-2-aminobutyric[1-^13C] acid in saline on day 3 of the experiment confirmed that oxidation of the release tag was similar in control and test groups, affording a cumulative oxidation of 65±8.3 and 72±9.4 per cent of dose recovery in 3 hours, respectively.

[4] = target: T3, Dipeptidyl Peptidase IV (DPPIV/CD26) (Rattus norvegicus, UniProt P14740); assay: DPPIV metaprobe breath test in the septic rat; format: in vivo, Sprague-Dawley rats; details: 3.5 mg/kg injected
T3 construct: from tissue; host or cells: whole rat in vivo (injected dose, 13CO2 collection)
T3 sequence (P14740 whole entry): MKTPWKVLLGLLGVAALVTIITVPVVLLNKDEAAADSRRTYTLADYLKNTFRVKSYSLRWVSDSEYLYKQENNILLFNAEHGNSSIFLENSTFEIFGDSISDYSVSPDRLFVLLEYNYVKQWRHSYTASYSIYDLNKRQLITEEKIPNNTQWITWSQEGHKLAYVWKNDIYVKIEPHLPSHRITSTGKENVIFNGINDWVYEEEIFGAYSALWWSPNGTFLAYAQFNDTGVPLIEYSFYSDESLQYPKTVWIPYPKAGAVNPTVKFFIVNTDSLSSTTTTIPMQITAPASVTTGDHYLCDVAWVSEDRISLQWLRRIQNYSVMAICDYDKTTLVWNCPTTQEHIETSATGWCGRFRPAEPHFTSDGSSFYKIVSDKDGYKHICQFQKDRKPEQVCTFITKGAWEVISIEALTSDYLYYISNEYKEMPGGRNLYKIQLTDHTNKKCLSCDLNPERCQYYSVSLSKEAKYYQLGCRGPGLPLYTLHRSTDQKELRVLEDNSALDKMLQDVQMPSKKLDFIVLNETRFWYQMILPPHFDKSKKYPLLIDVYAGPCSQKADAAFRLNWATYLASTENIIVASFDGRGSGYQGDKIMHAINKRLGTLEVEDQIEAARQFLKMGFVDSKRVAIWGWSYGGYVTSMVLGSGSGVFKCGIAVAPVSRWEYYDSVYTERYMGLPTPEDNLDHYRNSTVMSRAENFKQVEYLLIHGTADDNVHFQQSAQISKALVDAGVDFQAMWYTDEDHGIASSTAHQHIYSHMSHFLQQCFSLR
Experimental: as §1, §2

[5] = sham breath test with free core tracer in septic rat model; format: in vivo, Sprague-Dawley rats; details: 1.5 mg/kg in saline, day 3, in 3 hours
Experimental: as §3

[6] = tested on: nitric oxide synthase (NOS)
Text: These studies constitute part of a continuing series intended to extend the protocols initiated by Castillo et al. (1996) and depend on intravenous metaprobe administration and mass spectral analysis of the resulting analytes extracted from plasma.

bovine thrombin = target: T4, bovine thrombin (Bos taurus, UniProt P00735); assay: metaprobe hydrolysis in solution by purified thrombin; format: biochemical; details: 0.5 NIH unit per ml, pH 8.4, 37° C., 15 minutes
T4 construct: Freshly prepared solutions of bovine thrombin and bovine plasmin, from reconstituted lyophilized powders (Sigma); purchased Sigma
Experimental: (§4) The suitability of substrates I-VI was tested by the enzymatic assay protocol of Svendsen. Freshly prepared solutions of bovine thrombin and bovine plasmin, from reconstituted lyophilized powders (Sigma) were prepared in tris-imidazole buffer at pH 8.4 to deliver nominally 0.5 NIH unit per ml of thrombin and 1 WHO unit of plasmin. After preincubation for 5 minutes at 37° C., 0.25 ml of an 0.5 mMolar solution of each substrate in the same aqueous buffer was added and the separate reactions incubated for 15 minutes at the same temperature. Reaction was stopped by addition of 1:9 concentrated HCl:methanol. Concentration of the supernatant, ion exchange chromatography on Dowex-50, with 2N ammonia water eluant, as a further desalting and deproteinizing step, afforded the amino acid fraction resulting from the enzymatic hydrolysis of the metaprobes. The concentration of p-aminobenzoic[1-^13C] acid (with tetradeutero isotopolog as internal quantitation standard) and of L-2-aminobutyric[1-^13C] acid (with pentadeutero isotopolog as internal quantitation standard) were then analyzed by isotope dilution GC/MS using the N-trifluoroacetyl propyl ester derivatives and the total hydrolytic conversion expressed as […]

bovine plasmin = target: T5, bovine plasmin (Bos taurus, UniProt P06868); assay: metaprobe hydrolysis in solution by purified plasmin; format: biochemical; details: 1 WHO unit, pH 8.4, 37° C., 15 minutes
T5 construct: Freshly prepared solutions of bovine thrombin and bovine plasmin, from reconstituted lyophilized powders (Sigma); purchased Sigma
T5 sequence (P06868 584-812 limits assumed): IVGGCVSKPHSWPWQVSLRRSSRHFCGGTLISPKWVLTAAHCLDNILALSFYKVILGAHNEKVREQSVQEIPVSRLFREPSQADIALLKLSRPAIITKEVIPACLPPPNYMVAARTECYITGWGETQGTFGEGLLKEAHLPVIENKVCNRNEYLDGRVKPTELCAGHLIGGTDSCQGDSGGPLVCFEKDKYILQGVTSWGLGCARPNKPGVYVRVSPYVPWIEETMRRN
T5 sequence (P06868 104-583 limits assumed): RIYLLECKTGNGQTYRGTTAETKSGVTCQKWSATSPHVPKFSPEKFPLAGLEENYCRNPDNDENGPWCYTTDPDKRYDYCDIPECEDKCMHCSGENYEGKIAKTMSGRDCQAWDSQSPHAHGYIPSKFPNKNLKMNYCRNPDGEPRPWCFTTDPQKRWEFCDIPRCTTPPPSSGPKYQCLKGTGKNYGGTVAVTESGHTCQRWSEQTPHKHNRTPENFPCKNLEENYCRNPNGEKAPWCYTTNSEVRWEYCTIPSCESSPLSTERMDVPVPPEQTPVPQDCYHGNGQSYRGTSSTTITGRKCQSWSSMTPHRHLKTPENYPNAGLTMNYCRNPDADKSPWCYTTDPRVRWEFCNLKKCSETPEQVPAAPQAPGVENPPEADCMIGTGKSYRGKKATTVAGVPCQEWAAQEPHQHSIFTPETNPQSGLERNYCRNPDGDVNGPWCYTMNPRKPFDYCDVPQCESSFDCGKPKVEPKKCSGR
Experimental: as §4

thrombin = target: T6, thrombin (Rattus norvegicus, UniProt P18292); assay: thrombin metaprobe hydrolysis in whole blood, septic rat model; format: biochemical
T6 construct: from tissue; host or cells: unfractionated whole blood of control and septic rats

thrombin and plasmin = assay: net coagulant potential (NCP) in whole blood, septic rat model; format: biochemical
plasmin = target: T7, plasmin (Rattus norvegicus, UniProt Q01177); assay: plasmin metaprobe hydrolysis in whole blood, septic rat model; format: biochemical
T7 construct: from tissue; host or cells: unfractionated whole blood of control and septic rats
T7 sequence (Q01177 582-812 limits assumed): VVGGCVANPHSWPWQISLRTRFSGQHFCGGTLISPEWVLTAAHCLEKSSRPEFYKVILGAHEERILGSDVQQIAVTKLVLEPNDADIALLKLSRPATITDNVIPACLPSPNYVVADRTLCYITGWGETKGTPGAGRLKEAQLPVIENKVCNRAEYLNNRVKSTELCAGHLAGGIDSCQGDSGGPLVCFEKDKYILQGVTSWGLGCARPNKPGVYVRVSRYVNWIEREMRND
T7 sequence (Q01177 97-581 limits assumed): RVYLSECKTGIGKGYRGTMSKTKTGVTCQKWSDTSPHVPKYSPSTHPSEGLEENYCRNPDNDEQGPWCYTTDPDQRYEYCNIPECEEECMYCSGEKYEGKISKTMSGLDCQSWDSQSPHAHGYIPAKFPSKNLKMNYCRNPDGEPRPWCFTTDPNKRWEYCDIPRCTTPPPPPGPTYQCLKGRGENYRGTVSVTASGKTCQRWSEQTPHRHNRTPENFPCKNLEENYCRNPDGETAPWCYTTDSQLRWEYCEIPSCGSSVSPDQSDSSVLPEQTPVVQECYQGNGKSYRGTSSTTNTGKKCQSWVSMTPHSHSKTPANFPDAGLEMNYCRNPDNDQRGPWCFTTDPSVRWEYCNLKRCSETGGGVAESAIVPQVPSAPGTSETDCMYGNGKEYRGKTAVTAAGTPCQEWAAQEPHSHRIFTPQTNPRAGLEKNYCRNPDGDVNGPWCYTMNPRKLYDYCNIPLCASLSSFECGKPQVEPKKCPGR

[7] = control group, average over the 7 day experiment

In the case of `CCOC(=O)[C@@H]1CCCN1C(=O)[C@@H]1CCCN1[13C](=O)CN` [Aminopeptidase P Metaprobe, glycyl[1-^13C]-L-prolyl-L-proline, ethyl ester], the “% Dose metabolized” value (Aminopeptidase P (APP) [1]; Control, two hour incubation at 37° C.) is reported as 22 ± 4 % Dose, the “% Dose metabolized” value (Aminopeptidase P (APP) [1]; Test sample, ARDS) is reported as 44 ± 14 % Dose and the “% Dose metabolized” value (Aminopeptidase P (APP) [2]; Control) is reported as 5 ± 4 % Dose. The “% Dose metabolized” value (Aminopeptidase P (APP) [2]; Test sample, Sepsis) was 28 ± 7 % Dose.
With `NCC(=O)N1CCC[C@H]1C(=O)Nc1ccc([N+](=O)[O-])cc1` [GP4NA, Glycyl-Prolyl-4-nitro-anilide, reference compound] (H-Gly-Pro-pNA) the Km [3] was 130 µM, the “specific activity of plasma towards substrate” value (“specific activity” below) (DPPIV; [7]) was 29 ± 6 nmol/min/mL and the “specific activity” value (DPPIV; septic, day six) was 49 ± 6 nmol/min/mL. The “specific activity” value (DPPIV; septic, day two) was 43 ± 7 nmol/min/mL.
For `CC[C@H](NC(=O)[C@@H]1CCCN1C(=O)CN)[13C](=O)O` [GPA, glycyl-prolyl-2-aminobutyric[1-^13C] acid], the “Cumulative Per Cent of Dose Exhaled in 3 Hours” value (from here on “Cumulative Per Cent”) ([4]; Day 1, CONTROL) was 4.3 (± 0.8) Per Cent of Dose, the “Cumulative Per Cent” value ([4]; Day 1, SEPSIS) was 5.7 (± 1.4) Per Cent of Dose and the “Cumulative Per Cent” value ([4]; Day 2, CONTROL) was 8.9 (± 1.3) Per Cent of Dose. For the same compound, the “Cumulative Per Cent” value ([4]; Day 2, SEPSIS) was 22.5 (± 5.3) Per Cent of Dose, the “Cumulative Per Cent” value ([4]; Day 6, CONTROL) was 4.9 (± 0.8) Per Cent of Dose and the “Cumulative Per Cent” value ([4]; Day 6, SEPSIS) was 9.2 (± 6.3) Per Cent of Dose.
With `CC[C@H](NC(=O)[C@@H]1CCCN1C(=O)CN)C(=O)O` [GPA, glycyl-prolyl-2-aminobutyric[1-^13C] acid] (H-Gly-Pro-[Abu]-OH) the Km [3] was 200 µM.
For `CC[C@H](N)[13C](=O)O` [L-2-aminobutyric[1-^13C] acid], the “cumulative oxidation, per cent of dose recovery” value ([5]; control group) was 65±8.3 per cent of dose and the “cumulative oxidation, per cent of dose recovery” value ([5]; test (septic) group) was 72±9.4 per cent of dose.
For `N[C@@H](CCCN=C([15NH2])[15NH2])C(=O)O` [L-arginine[guanidino-^15N2]], the “NOPI2 on Admission” value ([6]; 2 day average in ICU, rapid recovery, no sepsis, n = 4) was 0.3 +/− 0.14 (n = 4), the “NOPI2 on Admission” value ([6]; 4 day average in ICU, recovery, sepsis treated successfully, n = 4) was 2.99 +/− 1.24 (n = 4) and the “NOPI2 on Admission” value ([6]; 7 day average in ICU, death from complications of sepsis and trauma, n = 3) was 6.64 +/− 1.92 (n = 3). For the same compound, the “NOPI2 on Admission” value ([6]; Normal Control, healthy (not admitted), n = 4) was 0.2 +/− 0.15 (n = 4).
In the case of `CCO[13C](=O)c1ccc(NC(=O)[C@H](CCCNC(=N)N)NC(=O)[C@@H]2CCCN2C(=O)[C@@H](Cc2ccccc2)NC(C)=O)cc1` [Substrate I, N-acetyl-d-phenylalanyl-L-prolyl-L-arginyl-p-aminobenzoic[1-^13C] acid, ethyl ester], the “Product formed, Thrombin” value (bovine thrombin) is reported as 6.0 nmol/min/mL and the “Product formed, Plasmin” value (bovine plasmin) is reported as 1.8 nmol/min/mL.
With `CCO[13C](=O)[C@H](CC)NC(=O)[C@H](CCCNC(=N)N)NC(=O)[C@@H]1CCCN1C(=O)[C@@H](Cc1ccccc1)NC(C)=O` [Substrate II, N-acetyl-d-phenylalanyl-L-prolyl-L-arginyl-L-2-aminobutyric[1-^13C] acid, ethyl ester] the “Product formed, Thrombin” value (bovine thrombin) was 6.9 nmol/min/mL and the “Product formed, Plasmin” value (bovine plasmin) was 2.3 nmol/min/mL.
With `CCO[13C](=O)c1ccc(NC(=O)C(CCCNC(=N)N)NC(=O)C2CCCN2C(=O)CNC(C)=O)cc1` [Substrate III, N-acetyl-glycyl-L-prolyl-L-arginyl-p-aminobenzoic[1-^13C] acid, ethyl ester] the “Product formed, Thrombin” value (bovine thrombin) was 6.6 nmol/min/mL and the “Product formed, Plasmin” value (bovine plasmin) was 3.6 nmol/min/mL.
For `CCO[13C](=O)[C@H](CC)NC(=O)[C@H](CCCNC(=N)N)NC(=O)[C@@H]1CCCN1C(=O)CNC(C)=O` [Substrate IV, N-acetyl-glycyl-L-prolyl-L-arginyl-L-2-aminobutyric[1-^13C] acid, ethyl ester], the “Product formed, Thrombin” value (bovine thrombin) was 7.8 nmol/min/mL, the “Product formed, Plasmin” value (bovine plasmin) was 3.1 nmol/min/mL and the “Percent of Metaprobe Dose Metabolized” value (thrombin; Control, Day 0) was 22 ± 9%. For the same compound, the “Percent of Metaprobe Dose Metabolized” value (thrombin; Septic, Day 2) was 76 ± 15%, the “Percent of Metaprobe Dose Metabolized” value (thrombin; Septic, Day 6) was 39 ± 12% and the “Percent of Metaprobe Dose Metabolized” value (thrombin; Septic, Day 10) was 25 ± 10%. The “NCP, net coagulant potential (difference between metaprobe IV and VI)” value (from here on “NCP … (difference between metaprobe IV and VI)”) (thrombin and plasmin; Control, Day 0) was 11 ± 10%, the “NCP … (difference between metaprobe IV and VI)” value (thrombin and plasmin; Septic, Day 2) was 62 ± 17% and the “NCP … (difference between metaprobe IV and VI)” value (thrombin and plasmin; Septic, Day 6) was −13 ± 21%. The “NCP … (difference between metaprobe IV and VI)” value (thrombin and plasmin; Septic, Day 10) was 2 ± 15%.
With `CCO[13C](=O)c1ccc(NC(=O)[C@H](CCCCN)NC(=O)[C@H](CC(C)C)NC(=O)[C@@H](N)CC(C)C)cc1` [Substrate V, L-leucyl-L-leucyl-L-lysyl-p-aminobenzoic[1-^13C] acid, ethyl ester] the “Product formed, Thrombin” value (bovine thrombin) was 0.3 nmol/min/mL and the “Product formed, Plasmin” value (bovine plasmin) was 7.2 nmol/min/mL.
In the case of `CCO[13C](=O)[C@H](CC)NC(=O)[C@H](CCCCN)NC(=O)[C@H](CC(C)C)NC(=O)[C@@H](N)CC(C)C` [Substrate VI, L-leucyl-L-leucyl-L-lysyl-L-2-aminobutyric[1-^13C] acid, ethyl ester], the “Product formed, Thrombin” value (bovine thrombin) is reported as 0.4 nmol/min/mL, the “Product formed, Plasmin” value (bovine plasmin) is reported as 8.1 nmol/min/mL and the “Percent of Metaprobe Dose Metabolized” value (plasmin; Control, Day 0) is reported as 11 ± 5%. For the same compound, the “Percent of Metaprobe Dose Metabolized” value (plasmin; Septic, Day 2) was 14 ± 7%, the “Percent of Metaprobe Dose Metabolized” value (plasmin; Septic, Day 6) was 52 ± 17% and the “Percent of Metaprobe Dose Metabolized” value (plasmin; Septic, Day 10) was 23 ± 12%.
With “gylcyl-prolyl-p-aminobenzoic[1-^13C] acid [GPPaba]” the “specific activity” value (DPPIV; [7]) was 18 ± 7 nmol/min/mL, the “specific activity” value (DPPIV; septic, day six) was 30 ± 6 nmol/min/mL and the “specific activity” value (DPPIV; septic, day two) was 55 ± 17 nmol/min/mL.
